These results are taken from patent US20230250098A1 (priority 2021, published 2023).

Molecules are shown by their SMILES. Entries after “also recorded” stand apart in the source; their conditions may differ.

As a reminder, the Ki is the equilibrium dissociation constant of an inhibitor or competing ligand from its target.

For series [1], the system named is WT mice. As to the kind of experiment: Accelerating rotarod test. The following applies: 30 mg·kg^−1 i.p. Background: Falling from the rotarod earlier than controls is read as motor impairment.
For series [2], the system named is δOP KO mice. As to the kind of experiment: Accelerating rotarod test in δOP KO mice.
Series [3] deals with T1, κOP (Homo sapiens, UniProt P41145). The format is cell-based.
For series [4], the system named is C57Bl/6 wild-type mice. In words: Two-bottle choice alcohol paradigm (drinking in the dark, 10% ethanol vs water). The format is in vivo, mouse.
Series [5] deals with T2, δOP (Homo sapiens, UniProt P41143). The format is cell-based.
Series [6] addresses T1, κOP. Type of series: binding. More on the design: membranes isolated.
In series [7] the target is T2, δOP. Type of series: binding. More on the design: membranes isolated.

T2 sequence (P41143 whole entry): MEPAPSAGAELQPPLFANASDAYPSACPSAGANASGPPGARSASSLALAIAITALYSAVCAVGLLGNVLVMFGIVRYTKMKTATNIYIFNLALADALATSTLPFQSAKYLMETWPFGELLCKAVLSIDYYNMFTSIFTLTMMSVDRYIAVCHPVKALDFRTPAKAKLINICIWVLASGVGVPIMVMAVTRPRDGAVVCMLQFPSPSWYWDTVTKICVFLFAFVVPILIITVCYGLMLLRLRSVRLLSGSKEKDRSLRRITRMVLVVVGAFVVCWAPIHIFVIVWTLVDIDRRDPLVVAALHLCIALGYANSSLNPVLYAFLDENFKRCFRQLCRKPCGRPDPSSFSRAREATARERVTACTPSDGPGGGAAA
T1 sequence (P41145 whole entry): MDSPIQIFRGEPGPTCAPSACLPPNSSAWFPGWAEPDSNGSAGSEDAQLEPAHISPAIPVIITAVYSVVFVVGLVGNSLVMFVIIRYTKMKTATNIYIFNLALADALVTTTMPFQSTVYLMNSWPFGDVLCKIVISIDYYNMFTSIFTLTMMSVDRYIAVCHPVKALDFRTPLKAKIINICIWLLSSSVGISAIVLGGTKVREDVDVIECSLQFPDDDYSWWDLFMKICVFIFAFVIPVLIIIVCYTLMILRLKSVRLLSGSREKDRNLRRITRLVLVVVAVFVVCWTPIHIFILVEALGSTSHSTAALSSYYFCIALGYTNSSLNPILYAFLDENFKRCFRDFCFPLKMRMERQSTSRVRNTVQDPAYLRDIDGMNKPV

With `CC[C@@H]1CN2CCc3c([nH]c4cccc(OC)c34)[C@H]2C[C@@H]1/C(=C\OC)C(=O)OC` [SPECIO, speciociliatine], the “rotarod performance (time spent on the rod), in words” value in series [1] is given as “significantly reduced the ability of treated wildtype mice to perform in the rotarod assessment; also recorded: significantly impairs motor incoordination; also recorded: significantly decreased time spent on the rod”. Besides, the “time of full recovery on rotarod” value in series [1] (post-injection) was 120 min. Besides, the “death and seizures in the rotarod assay” value in series [2] (30 mg/kg i.p.) is “one δOP KO mouse died after experiencing severe, level 5-6 seizures”. Moreover, the “rotarod performance, in words” value in series [2] (30 mg·kg^−1 i.p.) was “The same effect was observed in δOP KO mice; also recorded: significantly impairs motor incoordination; also recorded: significantly decreased time spent on the rod”. For the same molecule, the “β-arrestin2 recruitment, in words” value in series [3] and in series [5] was “no β-arrestin2 recruitment was detected” in each case. For the same molecule, the “ethanol consumption, in words” value in series [4] (30 mg·kg^−1 (7-hydroxypaynantheine s.c., speciociliatine i.p.), WT male mice) was “significantly decreased ethanol consumption; also recorded: significant and sharp decrease in alcohol consumption”. Moreover, in series [4] (30 mg·kg^−1, WT mice), the “average decrease of ethanol consumption” value stood at 2.5 ± 0.3 g/kg. Moreover, the “percent reduction of ethanol consumption” value in series [4] (30 mg·kg^−1, WT mice) came to 90±3%. The “Binding pKi” value in series [6] is reported as 6.2 ± 0.1 (4); in series [7] ([3H]DPDPE, CHO membranes) it was 5.4±0.1. For the same molecule, the Ki in series [6] (read-out: Binding Ki) came out at 590 nM; in series [7] ([3H]DPDPE, CHO membranes, read-out: Binding Ki), 4.34 µM. Further, the “δOP binding, in words” value in series [7] is “displayed binding at the δOP”.
